# Laboratory results as given in PubChem BioAssay AID2305 (GlaxoSmithKline (GSK), 2010).
# Tested on: P. falciparum 3D7 growth, pLDH absorbance
# Experiment: P. falciparum 3D7 growth inhibition, dose response, strain 3D7 (AID 2305)
row,SMILES,IC50 [nM]
1,COc1ccc(CCN(C)CCCCc2ccc(NC(=O)c3cccc4c(=O)c5cc(F)ccc5sc34)cc2)cc1OC,900
2,Cc1ccc(C2=NNC3(S2)C(=O)Nc2ccc(C)cc23)cc1 (stereo not drawn),1020
3,CCN(CC)CCCC(C)Nc1c(-c2ccc(OC)cc2)cnc2ccccc12 (stereo not drawn),890
4,CCN(CCCN1CCCCC1)c1cc(C)nc(Nc2ccc(C)c(Br)c2)n1,250
5,Cc1cc(O)c(CNC2CCCCC2)cc1C,1050
6,Cc1ccccc1NC1=NC(=S)N(c2cccc(C(F)(F)F)c2)C12CCC(C(C)(C)C)CC2 (stereo not drawn),970
7,Cc1nc2ccc3ccc(CNc4ccc(C#N)cc4)cc3c2c(=O)[nH]1,1440
8,COc1ccc(C2N=C(N)N=C(N)N2OCc2ccccc2)cc1OC (stereo not drawn),130
9,Cc1cccc2[nH]c(-c3cccc(-c4cccc(NC(=O)c5cnn6cccnc56)c4)c3)nc12,670
10,Fc1ccc2[nH]cc(CCNCc3ccc(-c4cccc(-c5nc6ccccc6[nH]5)c4)cc3)c2c1,170
11,Cn1cncc1CCCN(Cc1ccc(-c2ccc(C(F)(F)F)cc2)cc1)C(=O)Cn1c(CCc2cccc(F)c2F)cc(=O)c2cccnc21,1250
12,Cc1cc(NC2CCN(Cc3ccccc3)CC2)nc(NCCCCc2ccccc2)n1,380
13,COc1ccc(-c2ccc(NC(=O)c3ccc(C#N)cc3)cc2)cc1CN(C)CCO,630
14,COc1cc2nc(NCCCOC(C)C)n3nc(-c4ccccc4)nc3c2cc1OC,200
15,FC(F)(F)c1ccc2nc(-c3cccc(-c4cccc(CNCCN5CCNCC5)c4)c3)[nH]c2c1,940
16,Cc1cc2nc(-c3ccc(C(=O)NCc4ccc(Cl)c(Cl)c4)cc3)[nH]c2cc1C,830
17,Cn1nc(-c2ccccc2F)c2cc(C(=O)Nc3cccnc3)sc21,810
18,Oc1cccc(-c2nc(-c3ccccc3)c(-c3ccc4oc5ccc(-c6[nH]c(-c7cccc(O)c7)nc6-c6ccccc6)cc5c4c3)[nH]2)c1,790
19,Oc1ccc(C=NNC(=S)Nc2cccc3ccccc23)c(O)c1,1040
20,CCN(CC)CCN(Cc1ccc(-c2ccc(C(F)(F)F)cc2)cc1)C(=O)Cn1c(CCc2cccc(F)c2F)nc(=O)c2cc(F)c(F)cc21,830
21,NC1=NC(c2ccccc2)(c2ccccc2)C(=O)N1CCCCc1ccccc1,760
22,CNc1ccc(CNCc2ccc(-c3ccc(-c4nc5ccc(C(F)(F)F)cc5[nH]4)s3)cc2)cc1,180
23,NC(N)=Nc1nc(-c2cccc(NC(=O)NCCc3c[nH]c4ccc(OCc5ccccc5)cc34)c2)cs1,810
24,COc1cc2nc(NCCc3ccccc3)nc(NCc3cnn(C)c3C)c2cc1OC,710
25,CSC1=NC2(CC(c3cccc(C)c3)c3cc(Cl)c(O)cc3O2)CC(C)(C)N1 (stereo not drawn),880

row,SMILES,IC50 [nM]
1,O=C(Nc1ccc2c(c1)CCC2)c1ccc(N2CCN(c3ccncc3)CC2)cn1,860
2,Cc1cc(F)ccc1-c1nc(NCCCN2CCCC2=O)nc2c1ccc(=O)n2-c1c(F)cccc1F,1020
3,c1ccc(C2CCN(Cc3ccc(-c4c[nH]c5nc(NC6CCCC6)ncc45)cc3)CC2)cc1,1010
4,CCC1(C)N=C(N)N=C(N)N1c1ccc(Cl)cc1 (stereo not drawn),160
5,Cc1nc2c(-n3cc(Cn4ccnc4)c4ccccc43)ncnc2n1-c1ccc(Cl)cc1Cl,990
6,CCOc1c(OC)ccc2c1CCN(CCN1CCC(CNC(=O)c3ccc(-c4ccc(C(F)(F)F)cc4)cc3)CC1)C2,850
7,COc1cc(NC(=O)N2CCOC(CCN3CCC4(CCc5ccccc54)CC3)(c3ccc(Cl)c(Cl)c3)C2)cc(OC)c1 (stereo not drawn),820
8,O=C(Nc1cccc(-c2ccc(-c3nc4ccccc4[nH]3)cc2)c1)c1csnn1,1070
9,COCCNCc1ccc(-c2cccc(CNC3CCN(Cc4ccccc4)CC3)c2)cc1,330
10,Oc1ccccc1CNCc1ccc(-c2cnc(N3CCCC(c4ccccc4)C3)nc2)cc1 (stereo not drawn),690
11,Cc1nc2ccccc2n1C1C[C@H]2CC[C@@H](C1)N2Cc1nccn1-c1ccccc1 (stereo partly drawn),370
12,COC(=O)c1ccc2nc(-c3ccc(C(=O)NC4CCN(Cc5ccccc5)CC4)s3)[nH]c2c1,690
13,Cc1cccc2[nH]c(-c3ccc(-c4ccc(CN5CCOCC5)cc4)cc3)nc12,820
14,Cn1c(NC2=NC3(c4ccccn4)N=C(Nc4nc5ccccc5n4C)NC3(c3ccccn3)N2)nc2ccccc21 (stereo not drawn),1040
15,O=C(Nc1ccc(-c2nc3ccccc3[nH]2)cc1)c1ccc(N2CCOCC2)c([N+](=O)[O-])c1,790
16,COc1ccc(CNCc2cccc(-c3ccc(-c4nc5ccccc5[nH]4)s3)c2)cc1,820
17,COc1ccc(C(=O)[C@H]2C[C@@H]2CN(C)CC(O)c2cc(C)c(OC)cc2C)cc1 (stereo partly drawn),970
18,CCn1c(SCC(=O)Nc2cc(C(F)(F)F)ccc2Cl)nc2ccccc2c1=O,400
19,CCOc1ccc(-c2cc3nc(C4CCNCC4)c(C(=O)Nc4ccc(C)cc4Cl)cn3n2)cc1,920
20,N#Cc1ccc2nc(-c3ccccc3)[nH]c2c1,700
21,O=C(NCCCCCN1CCC(c2c[nH]c3ccccc23)CC1)Nc1cccc(C(F)(F)F)c1,1000
22,COc1ccc2nc3cc(Cl)ccc3c(Nc3ccc(Sc4ccc(Nc5c6ccc(Cl)cc6nc6ccc(OC)cc56)cc4)cc3)c2c1,200
23,CCOC(=O)C(Oc1ccc2ccccc2c1)C(=O)OCC,760
24,CCC[C@@H]([C@@H](CC(C)C)C(=O)N[C@H](C(=O)Nc1nccs1)C(C)(C)SCCNC(=O)OCC)N(O)C=O,170
25,COc1ccc2nccc([C@@H](O)CN3CCC(NCCOc4ccc(F)cc4[N+](=O)[O-])CC3)c2c1,120

row,SMILES,IC50 [nM]
1,NC(N)=NN=CC(=O)Nc1cc([N+](=O)[O-])cc([N+](=O)[O-])c1,630
2,CCN(CC)CCN(Cc1ccc(-c2ccc(C(F)(F)F)cc2)cc1)C(=O)Cn1c(SCc2ccc(F)cc2)nc(=O)c2ccccc21,770
3,O=S(=O)(NCCN1CCCC1)c1ccc(-c2ccc(CNCc3ccsc3)cc2)s1,830
4,Cc1cc2c(cc1Cl)N(C(=O)Nc1cc(F)cc(-c3cncnc3)c1)CC2,380
5,COc1cc(NC(=O)Nc2cccc3ccccc23)c(OC)cc1Cl,480
6,COc1ccc(CNCc2ccccc2)cc1-c1ccc(S(=O)(=O)NCCN2CCCC2)c(C)c1,860
7,O=C(NCCN1CCC(c2ncc(-c3ccccc3)o2)CC1)c1ccc(NC(=O)c2ccc(Cl)cc2)cc1,240
8,Cc1cc(N[C@@H](Cc2ccccc2)C(=O)NCCCOC(C)C)nc(NCCc2ccc(F)cc2)n1,930
9,O=C(c1ccc2ccccc2n1)N1CCCc2cc(Br)ccc21,860
10,CCc1nonc1NC(=O)c1oc2c(C)c(C)ccc2c1C,880
11,O=C(NCc1cccc(F)c1)Nc1cccc(-c2cccc(-c3nc4ccc(C(F)(F)F)cc4[nH]3)c2)c1,330
12,O=C1C2=C(Nc3ccccc3SC2c2cccs2)c2ccccc21 (stereo not drawn),230
13,CC(C)CNCc1cccc(-c2cccc(CN(C(=O)c3cccs3)C3CCN(Cc4ccccc4)CC3)c2)c1,900
14,CCCCNc1ccc(C(=O)NC2CCN(C[C@H](O)c3ccnc4ccc(OC)cc34)CC2)cc1,440
15,COc1cc(-c2nc(C(C)(C)CN)[nH]c2-c2ccncc2)ccc1Br,770
16,Cc1cc2ncn(-c3nccc(NCc4ccc(F)cc4)n3)c2cc1C,890
17,Fc1ccc2nc(Nc3nc(-c4ccccn4)cs3)sc2c1,560
18,O=C(/C=C/c1ccc([N+](=O)[O-])cc1)N1CCC(NS(=O)(=O)c2ccc(Br)cc2)CC1,1050
19,CN1CCC(NCc2cccc(-c3ccc(S(=O)(=O)NCCN4CCCC4)s3)c2)CC1,930
20,O=C(NCCCCNCC(Cc1cccc(O)c1)c1ccccc1)c1ccc(NC(=O)c2ccc(Cl)cc2)cc1 (stereo not drawn),1040
21,Cc1nc(N)nc(N)c1CCCOc1ccccc1Br,420
22,Cc1ccc(NC(=O)NC2CCN(c3ccnc4cc(Cl)ccc34)C2)cc1 (stereo not drawn),150
23,COc1ccc(-c2nonc2NC(=O)c2ccc(C(C)(C)C)cc2)cc1OC,810
24,COc1nc2c(CCN3CC[C@H](NCc4cc(C#N)c5c(c4)OCCO5)[C@H](O)C3)ccnc2cc1F,780
25,CN1CCN(Cc2cccc(-c3ccc4c(Nc5ccc(F)cc5Cl)ccnc4c3)c2)CC1,160

row,SMILES,IC50 [nM]
1,O=C(/C=C/c1ccc(Cl)cc1)NCCCCCN1CCC(c2c[nH]c3ccccc23)CC1,840
2,COc1ccc(O)c(Cc2cnc3nc(N)[nH]c(=O)c3c2C)c1,230
3,CCOC(=O)N1CCN(CCCNc2c3ccc(Cl)cc3nc3ccc(OC)cc23)CC1,100
4,CN1CCN(c2ccc(Nc3c(C(N)=O)cnc4cc(-c5ccoc5)ccc34)cc2)CC1,810
5,Cc1cc(NN=Cc2ccccc2Cl)c2cc(F)ccc2n1,750
6,Cn1cnc(CCNC(=O)c2cccc(-c3ccc(-c4nc5ccc(F)cc5[nH]4)cc3)c2)c1,940
7,Cc1cc(N[C@@H](Cc2ccccc2)C(=O)NCc2cccc(F)c2)nc(Nc2ccccc2)n1,930
8,Cc1noc(C)c1-c1ccc2c(Nc3ccc(Cl)cc3)c(C(N)=O)cnc2c1,830
9,CC(C)c1ccc(S(=O)(=O)Nc2cccc(CCN3CCC(N4CCCCC4)CC3)c2)cc1,1120
10,COc1cccc(-c2cc(C(=O)Nc3ccc4nc(-c5ccccc5)[nH]c4c3)[nH]n2)c1,840
11,Cc1c(CNCCCNc2cc(=O)c3ccccc3[nH]2)sc(C(F)F)c1Br,870
12,COc1cc2c(cc1NC(=O)CN1CCN(C(=O)c3ccco3)CC1)oc1ccccc12,420
13,CC(=O)Nc1ccc(CN2CCC(NC(=O)c3ccc(-c4ccc(N(C)C)cc4)s3)CC2)cc1,870
14,Cc1cccc(C(=O)Nc2ccnc(N3CCC(N(C)Cc4cccc(C#N)c4)CC3)c2)c1,1100
15,O=[N+]([O-])c1ccccc1C=NNc1ccnc2ccccc12,860
16,CCOC(=O)c1ccc(NC(=O)NNC(=O)c2ccc(CCN3CCC(c4nc(COCC(F)(F)F)c(-c5ccc(F)cc5)o4)CC3)cc2)cc1,570
17,COc1ccc(NC(=O)c2ccc(-c3nc(-c4ccccc4)cs3)cc2)cc1N1CCN(C)CC1,990
18,COc1ccc(Oc2ccc(Nc3ccnc4ccc(C(F)(F)F)cc34)cc2)cc1OC,1060
19,CCc1cc2c(N)nc(N)nc2nc1-c1ccccc1,950
20,Cc1cc(NC(=O)NCCN2CCC(NC(=O)c3cccc(Br)c3)C2)c2ccccc2n1 (stereo not drawn),550
21,Fc1cccc2sc(Nc3nc(-c4ccccn4)cs3)nc12,910
22,OCC1CCN(Cc2cccc(-c3cccc(-c4nc5ccc(C(F)(F)F)cc5[nH]4)c3)c2)CC1,510
23,O=C(O)CCSc1ncnc2nc[nH]c12,130
